Earlier results, collected in US10526334B2, “Methods for preparing bis-tetrahydroisoquinoline-containing compounds” (California Institute of Technology, priority 2017, dated 2020).
Where two headings read alike, the source gives them in different places.

Assays:
[1] = not given; remark: listed apart in the source
[2] = read-out: IC50 (A549 lung cancer)

| in vivo half-life (t1/2) (in rodents) [h] | t1/2 (rodent) (rodent) [h] | t1/2 (human) ([1]; human) [h] | in vivo half-life (t1/2) ([1]; in humans) [h] | SMILES | rodent in vivo half-life (rodent) [h] | IC50 (A549 lung cancer; [2]) [nM] | IC50 (A375 melanoma) [nM] | IC50 (DU145 prostate cancer) [nM] | IC50 (A549 lung cancer; read-out: IC50 vs. A549 lung cancer) [nM] | IC50 (HCT116 colon cancer) [nM] |
| --- | --- | --- | --- | --- | --- | --- | --- | --- | --- | --- |
| – | – | – | – | COc1c(C)c(OC)c2c(c1O)[C@@H]1[C@@H]3Cc4c(OC)c(C)c(OC)c(O)c4[C@H](CNC(=O)c4ccc5ccccc5n4)N3[C@@H](C#N)[C@H](C2)N1C [QAD] | 0.283 | 4.4 | 1.3 | – | – | – |
| 20 | 20 | 96 to 180 | 96 to 180 | COc1cc2c(cc1O)CCN[C@]21CS[C@@H]2c3c(OC(C)=O)c(C)c4c(c3[C@H](COC1=O)N1[C@@H]2[C@H]2c3c(cc(C)c(OC)c3O)C[C@@H]([C@@H]1O)N2C)OCO4 [Et 743, ecteinascidin 743] | – | 1 | 0.15 | – | – | – |
| – | – | – | – | COC1=C(C)C(=O)C2=C(C1=O)[C@@H]1[C@@H]3CC4=C(C(=O)C(OC)=C(C)C4=O)[C@H](COC(C)=O)N3[C@@H](O)[C@H](C2)N1C [Jorumycin, jorumycin] | – | – | – | 0.49 | 0.24 | 0.57 |
